Experiments:
[1] = target: T1, interaction between Supt4h and NGN (Homo sapiens, UniProt O00267+P63272); test: Split Gaussia luciferase complementation assay (M2-8 cells); type: cell-based; conditions: for IC50: M2-8 cells, 24 hr, concentration at which signal was reduced to 50% of untreated
T1 construct: expressed in transfected cells
Description: i: pNBR-X1-Supt4-Gluc1 and pNEBR-X1-NGN-Gluc2 The HA-Supt4h and Flag-NGN fragments are amplified by PCR using the plasmid pHA-Supt4h-YC and pFlag-NGN-YN and sub-cloned individually into pcDNA3.1-Gluc1 and pcDNA3.1-Gluc2 (described in “A highly sensitive protein-protein interaction assay based on Gausssia luciferase” published at Nat Methods. 2006 December; 3(12):977-9. Epub 2006 Nov. 12). Then HA-Supt4h-Gluc1 and Flag-NGN-Gluc2 are amplified by PCR and inserted to pNEBR-X1-Hygro (New England BioLabs), which contain RheoSwitch responsive element under the control of RheoSwitch ligand.
PCR products containing the sequence from 5XRE to polyA in pNEBR-X1-NGN-G2 are inserted to pNEBR-X1-Supt4h-G1 at PciI site to generate Supt4h-G1 and NGN-G2 bidirectional under their own RheoSwitch responsive element and polyA in the same plasmid.
i: 293-R^1 is a cloned cell which is engineered to constitutively express RSL1 receptor/activator by transfecting HEK 293 cells with pNEBR-R^1 plasmid (New England BioLabs) and selected with Blasticidin.
ii: M2-8 is a cloned 293-R^1 cell which can inducibly express pNEBR-X1-Supt4h-G1-NGN-G2 by addition of RSL1. Two point mutations (M431 and M1101) are introduced to the GL1 and GL2 for better stability according to “A high-throughput cell-based Gaussia luciferase reporter assay for identifying modulators of fibulin-3 secretion” published on J Biomol Screen. 2013 July; 18(6):647-58. The cell line is selected by Hygromycin.
All the HEK-293 cells and derivative cell clones are maintained in DMEM containing 10% FBS plus corresponding antibiotics (250 μg/ml hygromycin B, 10 μg/ml blasticidin or both) at 37° C., 5% CO2. All the transfections are done by using lifpofectamine 2000 (Invitrogen) according to the manufacture's direction.
Plasmids harboring the Gluc1 and Gluc2 are co-transfected in a 1:1 ratio into 293-R^1 cells plated on tissue culture treated 24-well plates using Lipofectamine 2000 according to the manufacturer's instruction. For stable cell M2-8, the cells are plated into 96 well or 384 well white plate directly. 24 hours later, RheoSwitch ligand together with/without test compound is added to the cells for induction/drug treatment. After 24 hr, the cells are washed with PBS and the plate was put in −20° C. freezer for overnight. After taking out the plate from freezer, lysis buffer (30 mM Tris-HCl, pH 8.0, 5 mM NaCl, 0.1% Triton X-100) with 10 μg/ml native coelenterazine (Nanolight Technology) is immediately added to the cells. The cells are lysed at room temperature for one hour in dark. After shaking for about 1 min, 40 μl of cell lysate are transferred to a white 96 well plate. For M2-8 in white micro plate, no transfer is needed. Signal intensities (integrated 100 ms) were read on Tecan Infinite M200 or M1000.
The bioluminescence signal of Gaussia Luciferase from untreated M2-8 cells was set as 100% and the IC50 of the compound was defined as the compound concentration at which the signal intensity was reduced to 50%.
The split Gaussia luciferase complementation assay measures the interaction between Sup4h and NGN. NGN is the subunit of Supt5h that binds to Supt4h. […] Therefore, administration of Compound 1 results in decreased production of mutant proteins encoded by genes that include mutant nucleotide repeats.

Gmr-Htt97Q/+ HD flies = test: Eye morphology (rough eye) analysis in Drosophila HD model; type: in vivo, Drosophila melanogaster; conditions: 100 μM in media
Description: FIG. 2A. The morphology of compound eye was analyzed in fruit flies treated with or without Compound 1. […] To quantify the appearance of “rough eye” in Gmr-Htt97Q/+ treated with 10 and 100 μM of Compound 1, ten flies were randomly picked from each group and the number of flies with “rough eye” phenotype were determined under microscope. Compared to untreated group, the relative percentage of HD flies with “rough eye” phenotype in treated groups is shown (right panel). Data are presented as mean±SD (N=3; **, p<0.01 by student's t test).
(§1) The Drosophila melanogaster (fruit fly) HD models used in this set of experiments carry the coding sequence of human Htt exon1 with 97 CAG repeats to mimic mutant Httof Huntington's disease (HD). The Gmr::Htt97Q fly, expressing mutant Htt primarily in the neurons of Drosophila compound eyes, has a severe degeneration of photoreceptor neurons and the phenotypic trait ‘rough eye’. The elav::Htt97Q fly expresses the mutant protein specifically in neuroblasts and glial cells in the Drosophila embryonic CNS, resulting in a substantially negative impact on eclosion. All of the fly stocks and genetics crosses were maintained at 25° C. on standard cornmeal yeast agar media. […]

HD flies = test: Fly viability; type: in vivo, Drosophila melanogaster; conditions: dose that alleviated phenotypic defects
mutant HTT protein = test: Mutant HTT activity assay in induced pluripotent stem cells (iPSC); type: cell-based, human; conditions: iPSCs derived from a Huntington's disease patient, 24 hr, Western blot normalized by tubulin
Description: FIG. 1A-1B. iPSCs were treated with Compound 1 at different doses for 24 hr. The cells were collected and lysed for protein quantification. Equal amounts of protein were applied on SDS-PAGE gel for Western Blotting. Mutant HTT protein was recognized by polyQ antibody (MAB1574 from Millipore) while wild type HTT protein was blotted by anti-Huntingtin antibody (MAB2166 from Millipore) (FIG. 1A). Both proteins were scanned and quantified by Li-Cor Odyssey and normalized by tubulin (FIG. 1B).
Huntington disease patient iPSCs (ND36999 from Coriell Institute) were detached into single cells by Accutase (AT104 from Accutase) and plated on a 24-well plate coated with Matrigel (354277 from Corning). […] The protein concentrations were determined by BCA assay (Pierce, ThermoFisher). […] The protein level of mutant HTT, total HTT and tubulin were determined by immunoblotting with anti-poly Glutamine (MAB1574 from Millipore), anti-Huntingtin protein (MAB2166 from Millipore) and anti-alpha tubulin (AJ1034a from ABGENT). […] The band intensities were determined by Li-Cor Odyssey software.
Using the protocol reported above, iPSCs were treated with Compound 1 at various doses for 24 hr. The cells were collected and lysed for protein quantification. […] Both proteins were scanned and quantified by Li-Cor Odyssey and normalized by tubulin.

elav::Htt97Q HD flies = test: Eclosion rate analysis in Drosophila HD model; type: in vivo, Drosophila melanogaster
Description: FIG. 2B. HD fly (elav::Htt97Q) eclosion rate was measured in the presence or absence of Compound 1 treatment. 100 newly hatched flies, generated from crossing of male (elav-gal4/cyo) and female (UAS-Htt97Q/UAS-Htt97Q) flies, were collected at […]. The eclosion rate was determined by the number of HD-flies (elav::Htt97Q) vs. the number of non HD-flies (cyo::Htt97Q) (N=3; *, p<0.05 by student's t test).
as §1, with “eclosion.” for “eclosion. All of the fly stocks and genetics crosses were maintained at 25° C. on standard cornmeal yeast agar media.”
A group of 15 male flies (elav-gal4/cyo) and 15 virgin-female (UAS-Htt97Q/UAS-Htt97Q) flies were cultured in a vial that contains standard yeast agar media without or with Compound 1. […] The eclosion rate is determined by the number of HD-flies vs. the number of non HD-flies in a total of 100 collected flies in each experimental condition. […]

| Compound | IC50 [1] [nM] | further results |
| --- | --- | --- |
| Cc1ccc2[nH]c3c(c2c1)CCCC3NCc1ccccc1 (stereo not drawn) | < 1000 |  |
| O=C(NC1CCCc2c1[nH]c1ccc(Cl)cc21)c1ccccn1 (stereo not drawn) | < 1000 |  |
| CC(C)Oc1ccc2[nH]c3c(c2c1)CCCC3NCCc1ccccc1 (stereo not drawn) | > 1000 |  |
| CC(C)Oc1ccc2[nH]c3c(c2c1)CCCC3NC1CCCC1 (stereo not drawn) | > 1000 |  |
| CC(C)NC1CCCc2c1[nH]c1ccc(OC(C)C)cc21 (stereo not drawn) | > 1000 |  |
| CC(C)NC1CCCc2c1[nH]c1ccc(Br)cc21 (stereo not drawn) | < 1000 |  |
| Brc1ccc2[nH]c3c(c2c1)CCCC3NC1CCCC1 (stereo not drawn) | < 1000 |  |
| CCN1CCC(NC2CCCc3c2[nH]c2ccccc32)CC1 (stereo not drawn) | > 1000 |  |
| Cc1ccc2[nH]c3c(c2c1)CCCC3NCc1ccc(F)cc1 (stereo not drawn) | < 1000 |  |
| Brc1ccc2[nH]c3c(c2c1)CCCC3NCc1ccccc1 (stereo not drawn) [Compound 1] |  | incidence of rough eye phenotype (Gmr-Htt97Q/+ HD flies): 70% of the untreated group; interaction between Sup4h and NGN ([1]; split Gaussia assay): interrupts the interaction between Sup4h and NGN; fly viability (HD flies): did not affect fly viability; mutant HTT protein level (mutant HTT protein): decreases mutant HTT protein; eclosion rate (elav::Htt97Q HD flies): relatively low eclosion rate was reversed |
| Brc1ccc2[nH]c3c(c2c1)CCCC3NCc1ccccc1 (stereo not drawn) [drawing 40] | < 1000 |  |

From US20200147069A1, “Compounds for The Reduction of The Deleterious Activity of Extended Nucleotide Repeat Containing Genes” (The Board of Trustees of the Leland Stanford Junior …, priority 2017, published 2020)
